Laboratory results taken from patent US6492416B1, “4,5-diaryl-3(2H)-furanone derivatives as cyclooxygenase-2 inhibitors” (Pacific Corporation, priority 1999, dated 2002).

Key:
[1] = test system: ICR mice; assay: Acetic acid-induced writhing test; type: in vivo, mouse; details: oral gavage
Description: ICR mice weighing 18˜22 g were maintained in a controlled lighting environment (12 hours on/12 hours off) and fasted overnight prior analgesic testing. Mice were administered with a compound of this invention dissolved in 10:10:80 ethanol/Tween 80/saline or vehicle only by oral gavage. The administered vehicle volume was controlled to be 10 ml/kg body weight. One hour later, the animals were treated with 0.2 ml of 1.2% acetic acid by peritoneal injection. 6 minutes later, the number of abdominal constrictions was counted for a 6 minutes period. The antinociceptive activity was expressed as the reduction in the number of abdominal constrictions, compared with that of the placebo group [J. Med. Chem. 39, 4942 (1996)]. ED50 of the mouse writhing test denotes a dose level at which the number of abdominal constrictions is half that of the placebo group. Ten animals per group were used for this study.

[2] = test system: male SD rats; assay: Carrageenan-induced thermal hyperalgesia assay; type: in vivo, rat; details: 3 hours
Description: Male SD rats weighing 170˜220 g were fasted but with free access to water for at leat 16 hours prior to testing. The rats were administered with a compound of this invention suspended in 20 ml 0.5% methylcellulose/0.025% Tween-20, or with vehicle only. Then the rats were given […] of 1% carrageenan in saline or […] saline only into the plantar surface of the left hindpaw by injection. Three hours later, the nociceptive responses to thermal stimuli were assessed as follows: Rats, which were placed in a transparent plastic chamber with a glass floor, were allowed to acclimate to their environment for 10 minutes prior to the testing. The withdrawal latency period in seconds was determined for the control and the compound treated group, and a percent inhibition in the withdrawal latency was calculated to estimate the analgesic effect of the compound [Pain 32, 77 (1988)]. In this study 6 animals were used for each group.

Row | SMILES | ED50 (mouse writhing) [1] | % Inhibition at 1.0 mg/kg body weight (rat hyperalgesia) [2]
1 | CC1(C)OC(c2ccc(S(C)(=O)=O)cc2)=C(c2cccc(F)c2)C1=O [Example 4, 2,2-Dimethyl-4-(3-fluorophenyl)-5-{4-(methylsulfonyl)phenyl}-3(2H)-furanone] | 8.3 mg/kg body weight | 27%
2 | CC1(C)OC(c2ccc(S(N)(=O)=O)cc2)=C(c2cccc(F)c2)C1=O [Example 129, 5-{4-(aminosulfonyl)phenyl}-2,2-dimethyl-4-(3-fluorophenyl)-3(2H)-furanone] | 12.3 mg/kg body weight | 92%
